Laboratory results taken from patent US20240287019A1, “T-TYPE CALCIUM CHANNEL BLOCKER” (KINKI UNIVERSITY, priority 2021, published 2024).

How the values were obtained:
[1] = tested on: mouse Na2S intrabuccal injection pruritus models; experiment: Mouse Na2S intrabuccal injection pruritus model (scratching bouts and wipes); assay type: in vivo, mice
Method: In this test, the antipruritic and analgesic effects of the present compound was studied using mouse Na2S intrabuccal injection pruritus models. Compound 5 was used as the present invention and saline comprising 1% DMSO and 5% Tween 80 was used as vehicle.
Male ICR mice were received the intrabuccal injection of 3.8 μmol (300 μg/10 μL) of Na2S and T-type calcium channel-[…] pain was induced to prepare mouse Na2S intrabuccal injection pruritus models. 18 mice were randomly divided into vehicle+saline administration group (control group), vehicle+Na2S administration group and compound 5 (10 mg/kg)+Na2S administration group (6 mice per group). The mice in each group were anesthetized with isoflurane and their right cheek hairs were shaved the day or a few days before the experiment. On the day of the experiment, the mice were placed in an acrylic observation cage with mirrors on all four sides and allowed to acclimate the environment for at least 30 minutes. After the acclimatization, Na2S was intradermally administered to the shaved cheeks of the mice without anesthesia, and their subsequent behavior was recorded on video. Compound 5 (10 mg/kg) or vehicle (V, 10 mL/kg) was intraperitoneally administered 30 minutes before Na2S was administered. At the later date, the video was replayed and the number of occurrences of the scratching bouts by the hind paws to the administration site (as pruritus response) and the wipes (wiping) by the forepaws (as pain response) was counted for 60 minutes to evaluate the antipruritic and analgesic effects of the present compound.

[2] = tested on: mouse Na2S intraplantar injection pain models; experiment: Mouse Na2S intraplantar injection pain model (von Frey pain threshold); assay type: in vivo, mice; details: for Pain Threshold: mean ± standard error
Method: In this test, the analgesic effect of the present compound was studied using mouse Na2S intraplantar injection pain models. Compound 5 was used as the present compound, and saline comprising 1% DMSO and 5% Tween 80 was used as vehicle.
Male ICR mice were received the intraplantar injection of 10 μmol/paw/10 μL of Na2S and T-type calcium channel-dependent pain was induced to prepare mouse Na2S intraplantar injection pain models. The mice were randomly divided into the vehicle+vehicle administration group (control group), vehicle+Na2S administration group, compound 5 (1 mg/kg)+Na2S administration group, compound 5 (3 mg/kg)+Na2S administration group and compound 5 (10 mg/kg)+Na2S administration group (n=7 to 11). Vehicle (V, 10 mL/kg) or 1, 3 or 10 mg/kg of compound 5 was intraperitoneally administered 30 minutes before Na2S was injected intraplantarlly in the hind paws of the mice.
Pain thresholds were measured every 15 minutes until 60 minutes after the administration of Na2S by the von Frey method to evaluate the analgesic effect of the present compound.

[3] = tested on: mouse intrabuccal injection pruritus models (histamine); experiment: Mouse intrabuccal injection pruritus model, histamine as pruritogen; assay type: in vivo, mice
Method: (§1) In this test, the antipruritic effect of the present compound was studied using mouse intrabuccal injection pruritus models in which histamine or chloroquine is intra-buccally administered as a pruritogen. Compound 5 and compound 38 were used as the present compound, and saline comprising 1% DMSO and 5% Tween 80 was used as control. Compound 5 and compound 38 were dissolved into saline comprising 1% DMSO and 5% Tween 80 to adjust the concentration of each compound. Also, male ICR mice with a body weight of 23 to 40 g were used as experimental animals and the animals were freely given tap water and solid feed and was kept under 12-hour light/dark cycle at room temperature of about 24° C.
According to the method in Shimada SG & LaMotte R H (2008) Behavioral differentiation between itch and pain in mouse. […] After the acclimatization, saline in a volume of 10 μL/site, histamine in a volume of 300 μL/site or chloroquine in a volume of 100 μL/site was intradermally administered to the shaved cheeks of the mice without anesthesia, and their subsequent behavior was recorded on video for 60 minutes. […] At the later date, the video was replayed and the number of occurrences of the scratching bouts by the hind paws to the administration site (as pruritus response) was counted for 60 minutes to evaluate the antipruritic effect of the present compound. […]

[4] = target: T1, human Cav3.2 T-type calcium channels (Homo sapiens, UniProt O95180); experiment: Whole-cell patch clamp, T channel current in HEK 293 cells forcibly expressing human Cav3.2; assay type: cell-based; details: perfusion addition method; from percentage change in T-channel current before and after addition; n=3 to 17
T1 construct: expressed in transfected cells; host or cells: HEK 293 cells
Method: The effect of the compound of the present invention on human Cav3.2 T-type calcium channels was evaluated by whole-cell patch clamp method. As a control (vehicle), DMSO solution was used.
Human kidney cell-derived cell line, HEK 293 cells, in which human Cav3.2 T-type calcium channels were forcibly expressed, were seeded into cell culture dishes using DMEM medium containing 10% fetal bovine serum and cultured at 37° C. under 5% CO2 conditions. In the whole-cell patch clamp method, the following solutions were used as extracellular and intracellular solutions, the holding potential is set at −80 mV, and the barium current flowing as an inward current in a potential jump from −80 mV to −20 mV was measured with a patch clamp amplifier and AD converter (Axon Instruments). In order to eliminate the influence of high-threshold activated calcium channels, the value obtained by subtracting the current at 150 ms after the start of stimulation from the peak current was used for data analysis as the T channel current (T-current). The data analysis was performed using pClamp8 (Axon Instruments).
As for test compounds, each compound dissolved in extracellular solution was added directly to the dishes (direct addition method) or added to the dishes by perfusion (perfusion addition method).
According to a similar method to the perfusion addition method of Test Example 1, the effect of each compound of the present invention on human Cav3.2 T-type channels was evaluated. As the test compounds, pimozide at each concentration of 0.01 μM, 0.1 μM, 0.3 μM, 1.0 μM and 3.0 μM, compound 5, compound 14 and compound 15 were used and the test compounds were added by perfusion.

[5] = tested on: mouse intrabuccal injection pruritus models (chloroquine); experiment: Mouse intrabuccal injection pruritus model, chloroquine as pruritogen; assay type: in vivo, mice; details: for Scratching bouts (counts/60 minutes) (n): mean ± standard error (n); for inhibition of the histamine-independent scratching bouts: 10 mg/kg, chloroquine, result in words
Method: as §1
According to the method in Shimada SG & LaMotte R H (2008) Behavioral differentiation between itch and pain in mouse. Pain 139 (3): 681-687, histamine or chloroquine, which is a pruritogen, was dissolved into saline and the solution was administered into the buccal skin of each male ICR mouse and pruritus was induced to prepare mouse intrabuccal injection pruritus models. The mice were randomly divided into saline comprising 1% DMSO and 5% Tween 80 (Solvent 1)+saline (Solvent 2) administration group (control group), Solvent 1+histamine administration group, compound 5 (10 mg/kg)+histamine administration group, Solvent 1+chloroquine administration group, compound 5 (10 mg/kg)+chloroquine administration group, compound 38 (1 mg/kg)+chloroquine administration group, compound 38 (3 mg/kg)+chloroquine administration group and compound 38 (10 mg/kg)+chloroquine administration group (n=6 to 10). The mice in each group were anesthetized with isoflurane and their right cheek hairs were shaved a few days before the experiment. On the day of the experiment, the mice were placed in an acrylic observation cage (10×14×30 cm) with mirrors on all four sides and allowed to acclimate the environment for at least 30 minutes. After the acclimatization, saline in a volume of 10 μL/site, histamine in a volume of 300 μL/site or chloroquine in a volume of 100 μL/site was intradermally administered to the shaved cheeks of the mice without anesthesia, and their subsequent behavior was recorded on video for 60 minutes. Compound 5 (10 mg/kg), compound 38 (1 mg/kg, 3 mg/kg or 10 mg/kg) or Solvent 1 (10 mL/kg) was intraperitoneally administered 30 minutes before saline or the pruritogen was administered. At the later date, the video was replayed and the number of occurrences of the scratching bouts by the hind paws to the administration site (as pruritus response) was counted for 60 minutes to evaluate the antipruritic effect of the present compound.
The test results are shown in Table 5 to Table 7 and FIG. 8 to FIG. 10. Table 5 and FIG. 8 show the mean value±standard error (the total (n)) of the total counts of the scratching bouts by the hind paws to the administration site for 60 minutes after the administration in control group, Solvent 1+histamine administration group and compound 5 (10 mg/kg)+histamine administration group and the graph thereof, and Table 6 and FIG. 9 show the mean value±standard error (the total (n)) of the total counts of the scratching bouts by the hind paws to the administration site for 60 minutes after the intrabuccal administration on the right side in control group, Solvent 1+chloroquine administration group, compound 5(10 mg/kg)+chloroquine administration group and the graph thereof, and Table 7 and FIG. 10 show the mean value±standard error (the total (n)) of the total counts of the scratching bouts by the hind paws to the administration site for 60 minutes after the intrabuccal administration on the right side in control group, Solvent 1+chloroquine administration group, compound 38 (1 mg/kg)+chloroquine administration group, compound 38 (3 mg/kg)+chloroquine administration group and compound 38 (10 mg/kg)+chloroquine administration group and the graph thereof.

[6] = tested on: male ddY mice; experiment: Catalepsy-inducing effect (bar test) after administration in the lateral ventricle; assay type: in vivo; details: 8 nmol in the lateral ventricle; 30-180 minutes after administration; result in words
Source text: In this test, the catalepsy-inducing effect of the present compound was studied to evaluate whether the present compound can inhibit side effects caused by the dopamine D2 receptor blockade. Compound 5 and compound 12 were used as the present compound and 2% DMSO solution was used as vehicle. Also, pimozide was used as the control drug.
16 male ddY mice were randomly divided into compound 5 administration group, compound 12 administration group, pimozide administration group and vehicle administration group (4 mice per group). The mice in each group were received the administration of 8 nmol (0.8 mM/10 μL) of compound 5, compound 12 and pimozide, and 10 μL of vehicle in the lateral ventricle. both forepaws of the mice were forced to place themselves on a horizontal iron bar (Height: 5 cm) and the time of keeping the posture (catalepsy) was measured to evaluate the presence or absence of catalepsy. The measurement was terminated when the forepaws touched the floor or when the mouse was on the bar.

[7] = 10 mg/kg i.p. + Na2S, result in words
[8] = 10 mg/kg intraperitoneally 30 minutes before Na2S, mean ± standard error, 6 mice

T1 sequence (O95180 whole entry, the tested form may be a part): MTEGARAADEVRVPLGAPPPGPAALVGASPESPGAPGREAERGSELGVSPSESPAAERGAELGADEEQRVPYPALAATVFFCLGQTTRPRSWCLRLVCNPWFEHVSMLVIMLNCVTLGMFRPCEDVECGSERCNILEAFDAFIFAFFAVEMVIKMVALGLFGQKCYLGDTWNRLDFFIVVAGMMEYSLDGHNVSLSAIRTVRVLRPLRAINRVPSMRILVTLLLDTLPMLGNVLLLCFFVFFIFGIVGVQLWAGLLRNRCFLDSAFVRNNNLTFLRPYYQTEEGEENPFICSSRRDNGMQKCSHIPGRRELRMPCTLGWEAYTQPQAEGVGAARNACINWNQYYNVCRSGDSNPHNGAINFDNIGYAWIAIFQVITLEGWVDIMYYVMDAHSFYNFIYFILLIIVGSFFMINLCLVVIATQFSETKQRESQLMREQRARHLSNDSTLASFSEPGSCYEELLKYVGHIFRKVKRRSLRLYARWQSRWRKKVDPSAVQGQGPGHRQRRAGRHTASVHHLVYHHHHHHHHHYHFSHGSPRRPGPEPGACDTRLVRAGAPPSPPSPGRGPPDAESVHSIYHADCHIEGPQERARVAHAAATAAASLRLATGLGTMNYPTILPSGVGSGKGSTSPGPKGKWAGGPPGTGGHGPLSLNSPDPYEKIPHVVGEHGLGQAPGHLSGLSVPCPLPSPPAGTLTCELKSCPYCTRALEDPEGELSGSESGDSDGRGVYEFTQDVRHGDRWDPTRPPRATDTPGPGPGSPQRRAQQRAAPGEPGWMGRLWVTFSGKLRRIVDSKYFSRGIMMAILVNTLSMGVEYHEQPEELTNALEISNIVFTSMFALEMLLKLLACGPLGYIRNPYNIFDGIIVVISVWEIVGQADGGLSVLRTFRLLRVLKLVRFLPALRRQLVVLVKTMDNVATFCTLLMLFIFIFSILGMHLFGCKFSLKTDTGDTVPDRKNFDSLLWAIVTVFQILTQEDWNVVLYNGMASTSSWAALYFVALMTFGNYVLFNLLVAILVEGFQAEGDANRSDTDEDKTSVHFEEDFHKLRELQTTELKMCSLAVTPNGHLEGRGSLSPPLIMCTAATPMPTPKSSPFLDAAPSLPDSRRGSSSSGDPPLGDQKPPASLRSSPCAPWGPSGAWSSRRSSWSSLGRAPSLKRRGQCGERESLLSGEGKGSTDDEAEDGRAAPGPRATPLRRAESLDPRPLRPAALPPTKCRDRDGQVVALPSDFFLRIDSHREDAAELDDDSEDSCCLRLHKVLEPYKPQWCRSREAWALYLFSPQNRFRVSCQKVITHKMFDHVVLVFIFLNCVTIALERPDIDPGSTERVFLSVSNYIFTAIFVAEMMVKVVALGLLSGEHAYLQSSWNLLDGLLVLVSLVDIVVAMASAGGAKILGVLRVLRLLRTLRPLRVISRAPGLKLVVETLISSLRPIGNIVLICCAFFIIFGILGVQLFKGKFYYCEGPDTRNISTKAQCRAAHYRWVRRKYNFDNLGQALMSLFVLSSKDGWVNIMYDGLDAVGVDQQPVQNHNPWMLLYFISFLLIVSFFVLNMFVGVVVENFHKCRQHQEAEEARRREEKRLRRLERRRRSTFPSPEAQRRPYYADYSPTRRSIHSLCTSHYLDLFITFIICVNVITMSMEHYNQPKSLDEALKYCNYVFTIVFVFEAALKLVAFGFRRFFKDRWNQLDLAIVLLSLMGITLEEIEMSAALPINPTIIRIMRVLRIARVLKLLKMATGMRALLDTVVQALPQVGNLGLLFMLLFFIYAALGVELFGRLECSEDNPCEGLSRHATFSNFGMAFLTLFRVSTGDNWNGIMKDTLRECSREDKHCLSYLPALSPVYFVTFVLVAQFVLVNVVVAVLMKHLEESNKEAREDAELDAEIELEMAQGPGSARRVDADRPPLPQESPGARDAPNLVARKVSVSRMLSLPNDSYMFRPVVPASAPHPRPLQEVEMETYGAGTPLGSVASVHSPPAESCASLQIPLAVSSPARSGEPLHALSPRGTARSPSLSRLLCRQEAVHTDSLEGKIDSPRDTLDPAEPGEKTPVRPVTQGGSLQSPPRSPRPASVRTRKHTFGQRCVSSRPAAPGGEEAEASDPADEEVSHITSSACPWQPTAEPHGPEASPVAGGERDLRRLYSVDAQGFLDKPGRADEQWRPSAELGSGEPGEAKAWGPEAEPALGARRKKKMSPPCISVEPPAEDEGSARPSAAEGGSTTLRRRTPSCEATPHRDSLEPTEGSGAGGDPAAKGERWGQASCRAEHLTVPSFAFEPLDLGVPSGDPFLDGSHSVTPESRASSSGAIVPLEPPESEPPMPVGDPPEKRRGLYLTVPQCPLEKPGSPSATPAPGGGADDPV

O=c1n(CCCCc2ccccc2)c2ccccc2n1C1CCN(CCCCc2ccccc2)CC1 [Compound 5, 1-(4-phenylbutyl)-3-(1-(4-phenylbutyl)piperidin-4-yl)-1H-benzo[d]imidazol-2(3H)-one]
inhibition of pain [1, 7]: significantly inhibited | inhibition of pruritus [1, 7]: significantly inhibited | Scratching bouts (counts/60 minutes) [1, 8]: 36.2 ± 9.5 counts/60 minutes | Wipes (counts/60 minutes) [1, 8]: 30.7 ± 4.0 counts/60 minutes | Pain Threshold ([2]; 1 mg/kg i.p. + Na2S, 15 minutes after administration): 0.317 ± 0.082 g | Pain Threshold ([2]; 1 mg/kg i.p. + Na2S, 30 minutes after administration): 0.296 ± 0.078 g | Pain Threshold ([2]; 3 mg/kg i.p. + Na2S, 15 minutes after administration): 0.347 ± 0.079 g | Pain Threshold ([2]; 3 mg/kg i.p. + Na2S, 30 minutes after administration): 0.417 ± 0.064 g | Pain Threshold ([2]; 10 mg/kg i.p. + Na2S, 15 minutes after administration): 0.514 ± 0.054 g | Pain Threshold ([2]; 10 mg/kg i.p. + Na2S, 30 minutes after administration): 0.604 ± 0.049 g | inhibition of pain ([2]; compound 5 administration group + Na2S, result in words): pain was inhibited | Scratching bouts (counts/60 minutes) (n) ([3]; 10 mg/kg i.p. 30 minutes before histamine, mean ± standard error (n)): 13.3 ± 5.0 (7) counts/60 minutes | inhibition of the histamine-dependent scratching bouts ([3]; 10 mg/kg, result in words): strongly inhibited | IC50 [4]: 461 nM | Scratching bouts (counts/60 minutes) (n) ([5]; 10 mg/kg i.p. 30 minutes before chloroquine, Table 6): 24.9 ± 5.5 (10) counts/60 minutes | inhibition of the histamine-independent scratching bouts [5]: strongly inhibited | catalepsy (keeping time of posture) [6]: catalepsy was induced

O=c1n(CCCCc2ccccc2)c2ccccc2n1C1CCN(CCCc2ccccc2)CC1 [Compound 14, 1-(4-Phenylbutyl)-3-(1-(3-phenylpropyl)piperidin-4-yl)-1H-benzo[d]imidazol-2(3H)-one]
IC50 [4]: 337 nM

O=C(CCCc1ccccc1)N1CCC(n2c(=O)n(CCCCc3ccccc3)c3ccccc32)CC1 [Compound 15, 1-(1-(4-Phenylbutanoyl)piperidin-4-yl)-3-(4-phenylbutyl)-1H-benzo[d]imidazol-2(3H)-one]
IC50 [4]: 153 nM

O=c1n(CCCCc2cccc(F)c2)c2ccccc2n1C1CCN(CCCCc2cccc(F)c2)CC1 [Compound 38, 1-(4-(3-Fluorophenyl)butyl)-3-(1-(4-(3-fluorophenyl)butyl)piperidin-4-yl)-1H-benzo[d]imidazol-2(3H)-one]
Scratching bouts (counts/60 minutes) (n) ([5]; 1 mg/kg i.p. 30 minutes before chloroquine, Table 7): 73.0 ± 10.5 (6) counts/60 minutes | Scratching bouts (counts/60 minutes) (n) ([5]; 3 mg/kg i.p. 30 minutes before chloroquine, Table 7): 50.7 ± 9.7 (6) counts/60 minutes | Scratching bouts (counts/60 minutes) (n) ([5]; 10 mg/kg i.p. 30 minutes before chloroquine, Table 7): 28.8 ± 10.5 (8) counts/60 minutes | inhibition of the histamine-independent scratching bouts [5]: strongly inhibited

O=c1[nH]c2ccccc2n1C1CCN(CCCC(c2ccc(F)cc2)c2ccc(F)cc2)CC1 [Pimozide, 1-{1-[4,4-Bis(4-fluorophenyl)butyl]piperidin-4-yl}-1,3-dihydro-2H-benzimidazol-2-one, reference compound]
IC50 [4]: 157 nM
